Source: patent publication US10626094B2 (La Jolla Institute of Allergy & Immunology, priority 2014, dated 2020)

Molecular target: LMPTP-A (Low Molecular Weight Protein Tyrosine Phosphatase-A) enzyme (Homo sapiens (Human), UniProt P24666)
Test: LMPTP primary screening / LMPTP (OMFP) enzyme inhibition assay, fluorescence intensity
Type: biochemical
Details: LMPTP-A, OMFP substrate, method of Example 2; read-out: IC50
Procedure, shortened: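 Single-concentration screen, test compounds 20 μM final, […]. Enzyme (0.625 nM) and OMFP (400 μM) react 50 min at room temp, dark, in Bis-Tris buffer pH 6.0 containing DTT 1 mM and Triton X-100 0.01%. Read-out: fluorescence intensity.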

Chain of LMPTP-A (Low Molecular Weight Protein Tyrosine Phosphatase-A) enzyme (P24666 whole entry): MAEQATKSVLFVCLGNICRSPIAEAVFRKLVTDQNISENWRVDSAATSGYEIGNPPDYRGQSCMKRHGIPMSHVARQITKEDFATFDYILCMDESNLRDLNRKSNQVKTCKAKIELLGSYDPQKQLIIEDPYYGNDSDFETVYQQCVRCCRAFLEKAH

In the case of CN(C)Cc1cccc(Nc2cc(-c3ccc(C(N)=O)cc3)nc3ccccc23)c1 [Compound I4, 4-[4-({3-[(dimethylamino)methyl]phenyl}amino)-2-quinolyl]benzamide], the IC50 is reported as over 5 µM.
COc1ccc(Cl)cc1-c1cc(NCCCN2CCCCC2)c2ccccc2n1 [Compound I133] showed an IC50 of 0.801 to 5 µM.
With COc1ccc(-c2cc(Nc3ccc(C#N)cc3)c3ccccc3n2)cc1 [Compound G47, 4-{[2-(4-methoxyphenyl)-4-quinolyl]amino}benzenecarbonitrile] the IC50 was 0.2 to 0.8 µM.
In the case of COc1ccc(-c2cc(NCCCN3CCCCC3)c3cc(C)ccc3n2)cc1 [Compound G24, [2-(4-methoxy-phenyl)-6-methyl-quinolin-4-yl]-(3-piperidin-1-yl-propyl)-amine], the IC50 is reported as over 5 µM.
With FC(F)(F)c1ccc(-c2cc(NCCCC3CCCNC3)c3ccccc3n2)c(Cl)c1 (stereo not shown) [Compound I120] the IC50 was 0.801 to 5 µM.
COc1ccc(-c2cc(NCCCN3CCCCC3)c3cc(F)ccc3n2)cc1 [Compound G30, [6-Fluoro-2-(4-methoxy-phenyl)-quinolin-4-yl]-(3-piperidin-1-yl-propyl)-amine] showed an IC50 of 0.801 to 5 µM.
c1ccc(-c2nc(NCCN3CCOCC3)c3ccccc3n2)cc1 [Compound I184, (2-morpholin-4-ylethyl)(2-phenylquinazolin-4-yl)amine] showed an IC50 of over 5 µM.
In the case of COc1ccc(-c2cc(Nc3cccc(Cc4nn[nH]n4)c3)c3ccccc3n2)cc1 [Compound I27, [2-(4-methoxyphenyl)(4-quinolyl)][3-(2H-1,2,3,4-tetraazol-5-ylmethyl)phenyl]amine], the IC50 is reported as 0.801 to 5 µM.
Compound CCN(CC)C(=O)c1ccc(-c2cc(NCCCC3CCCNC3)c3ccccc3n2)cc1 (stereo not shown) [Compound I71, N,N-diethyl(4-{4-[(3-piperidylpropyl)amino](2-quinolyl)}phenyl)carboxamide] has an IC50 of 0.2 to 0.8 µM.
In the case of Fc1cc(F)c(-c2cc(NCCCN3CCCCC3)c3ccccc3n2)cc1F [Compound I86], the IC50 is reported as 0.801 to 5 µM.
Compound “[2-(3,4-dichlorophenyl)(4-quinolyl)](3-piperidylpropyl)amine [Compound I138]” has an IC50 of 0.801 to 5 µM.
In the case of Fc1cc(Cl)ccc1-c1cc(Nc2ccc(CN3CCCCC3)cc2)c2ccccc2n1 [Compound I8, [2-(4-chloro-2-fluorophenyl)(4-quinolyl)][4-(piperidylmethyl)phenyl]amine], the IC50 is reported as 0.801 to 5 µM.
NC(=O)c1ccc(-c2cc(NCCCN3CCCCC3)c3ccccc3n2)cc1F [Compound I81] showed an IC50 of 0.2 to 0.8 µM.
Work on Fc1ccc(Nc2cc(-c3ccccc3C(F)(F)F)nc3ccccc23)cc1 [Compound G34, (4-Fluoro-phenyl)-[2-(2-trifluoromethyl-phenyl)-quinolin-4-yl]-amine] yielded an IC50 of 0.801 to 5 µM.
In the case of COc1ccc(-c2cc(Nc3cccc(CN(C)C)c3)c3ccccc3n2)cc1 [Compound G58, [(3-{[2-(4-methoxyphenyl)(4-quinolyl)]amino}phenyl)methyl]dimethylamine], the IC50 is reported as 0.2 to 0.8 µM.
With Fc1ccc(-c2cc(NCCCN3CCCCC3)c3ccccc3n2)c(F)n1 [Compound I90] the IC50 was 0.801 to 5 µM.
Fc1cc(F)cc(-c2cc(NCCCN3CCCCC3)c3ccccc3n2)c1 [Compound I85] gave an IC50 of 0.801 to 5 µM.
“N-cyclopropyl(4-{4-[(3-piperidylpropyl)amino](2-quinolyl)}phenyl)carboxamide [Compound I70]” showed an IC50 of 0.801 to 5 µM.
Compound “[2-(2,6-dichlorophenyl)(4-quinolyl)](3-piperidylpropyl)amine [Compound I100]” has an IC50 of over 5 µM.
c1ccc2c(NCCCN3CCCCC3)cc(-c3ccc(OC4CCCCO4)cc3)nc2c1 (stereo not shown) [Compound I1I3, [2-(4-(2H-3,4,5,6-tetrahydropyran-2-yloxy)phenyl)(4-quinolyl)](3-piperidylpropyl)amine] was tested, and the IC50 was 0.801 to 5 µM.
For c1csc(-c2cc(NCCCN3CCCCC3)c3ccccc3n2)c1 [Compound G16, (3-Piperidin-1-yl-propyl)-(2-thiophen-2-yl-quinolin-4-yl)-amine], the IC50 was 0.801 to 5 µM.
FC(F)(F)Oc1ccc(-c2cc(NCCCN3CCCCC3)c3ccccc3n2)cc1 [Compound G4, (3-Piperidin-1-yl-propyl)-[2-(4-trifluoromethoxy-phenyl)-quinolin-4-yl]-amine] gave an IC50 of 0.801 to 5 µM.
CSc1ccccc1-c1cc(NCCCN2CCCCC2)c2ccccc2n1 [Compound I158] was tested, and the IC50 was 0.2 to 0.8 µM.
COc1ccc(-c2cc(Nc3ccccc3CC3CCNCC3)c3ccccc3n2)cc1 [Compound I38, [2-(4-methoxyphenyl)(4-quinolyl)][2-(4-piperidylmethyl)phenyl]amine] was tested, and the IC50 was over 5 µM.
For CN1CCCC1CCNc1cc(-c2cccc(Cl)c2)nc2ccccc12 (stereo not shown) [Compound I15, [2-(3-chlorophenyl)(4-quinolyl)][2-(1-methylpyrrolidin-2-yl)ethyl]amine], the IC50 was 0.801 to 5 µM.
Work on c1coc(-c2cc(NCCCN3CCCCC3)c3ccccc3n2)c1 [Compound G12, (2-Furan-2-yl-quinolin-4-yl)-(3-piperidin-1-yl-propyl)-amine] yielded an IC50 of 0.801 to 5 µM.
In the case of c1ccc2[nH]c(-c3cc(NCCCN4CCCCC4)c4ccccc4n3)cc2c1 [Compound I124], the IC50 is reported as over 5 µM.
For COc1ccc(-c2cc(NCCCN3CCCCC3)c3cc(Cl)ccc3n2)cc1 [Compound G27, [6-Chloro-2-(4-methoxy-phenyl)-quinolin-4-yl]-(3-piperidin-1-yl-propyl)-amine], the IC50 was over 5 µM.
For O=C(NCCc1ccncc1)c1ccc(-c2cc(NCCCN3CCCCC3)c3ccccc3n2)cc1 [Compound I189], the IC50 was 0.2 to 0.8 µM.
c1ccc(-c2cc(NCCCN3CCOCC3)c3ccccc3n2)cc1 [Compound I179, (3-morpholin-4-ylpropyl)(2-phenyl(4-quinolyl))amine] was tested, and the IC50 was over 5 µM.
In the case of FC(F)(F)c1cc(-c2cc(Nc3cccc(CC4CCNCC4)c3)c3ccccc3n2)cc(C(F)(F)F)c1 [Compound I52, {2-[3,5-bis(trifluoromethyl)phenyl](4-quinolyl)}[3-(4-piperidylmethyl)phenyl]amine], the IC50 is reported as over 5 µM.
With Clc1cccc(-c2cc(Nc3cccc(CC4CCN(Cc5ccccc5)CC4)c3)c3ccccc3n2)c1 [Compound I17, [2-(3-chlorophenyl)(4-quinolyl)](3-{[1-benzyl(4-piperidyl)]methyl}phenyl)amine] the IC50 was 0.801 to 5 µM.
CS(=O)(=O)c1ccc(-c2cc(NCCCN3CCCCC3)c3ccccc3n2)cc1 [Compound I132] showed an IC50 of 0.801 to 5 µM.
Work on COc1ccc(-c2cc(Nc3cccc(CN4CCN(C)CC4)c3)c3ccccc3n2)cc1 [Compound G60, [2-(4-methoxyphenyl)(4-quinolyl)]{3-[(4-methylpiperazinyl)methyl]phenyl}amine] yielded an IC50 of 0.801 to 5 µM.
With c1ccc(CSc2cccc(-c3cc(NCCCN4CCCCC4)c4ccccc4n3)c2)cc1 [Compound I245] the IC50 was over 5 µM.
Work on Clc1cccc(-c2cc(Nc3cccc(CN4CCCC4)c3)c3ccccc3n2)c1 [Compound I12, [2-(3-chlorophenyl)(4-quinolyl)][3-(pyrrolidinylmethyl)phenyl]amine] yielded an IC50 of 0.801 to 5 µM.
COc1ccc(-c2cc(Nc3ccc(OC(C)C)cc3)c3ccccc3n2)cc1 [Compound G44, [2-(4-methoxyphenyl)(4-quinolyl)][4-(methylethoxy)phenyl]amine] gave an IC50 of 0.801 to 5 µM.
c1ccc2c(NCCCN3CCCCC3)cc(-c3cncnc3)nc2c1 [Compound I143] showed an IC50 of 0.801 to 5 µM.
For COc1ccc(-c2cc(NCCc3ccccn3)c3ccccc3n2)cc1 [Compound I199, [2-(4-methoxyphenyl)(4-quinolyl)](2-(2-pyridyl)ethyl)amine], the IC50 was 0.801 to 5 µM.
C[Si](C)(C)c1cccc(-c2cc(NCCCN3CCCCC3)c3ccccc3n2)c1 [Compound I145] was tested, and the IC50 was 0.801 to 5 µM.
With NC(=O)c1ccc(-c2cc(NCc3ccc(CN4CCCCC4)cc3)c3ccccc3n2)cc1 [Compound I213, 4-[4-({[4-(piperidylmethyl)phenyl]methyl}amino)-2-quinolyl]benzamide] the IC50 was over 5 µM.
With CN1CCCC1CCNc1cc(-c2cc(C(F)(F)F)cc(C(F)(F)F)c2)nc2ccccc12 (stereo not shown) [Compound I46, {2-[3,5-bis(trifluoromethyl)phenyl](4-quinolyl)}[2-(1-methylpyrrolidin-2-yl)ethyl]amine] the IC50 was over 5 µM.
With CN(C)Cc1ccc(Nc2cc(-c3cc(C(F)(F)F)cc(C(F)(F)F)c3)nc3ccccc23)cc1 [Compound I47, {[4-({2-[3,5-bis(trifluoromethyl)phenyl](4-quinolyl)}amino)phenyl]methyl}dimethylamine] the IC50 was over 5 µM.
Work on COc1ccc(-c2cc(NCCc3ccccc3)c3ccccc3n2)cc1 [Compound G83, [2-(4-methoxyphenyl)(4-quinolyl)](2-phenylethyl)amine] yielded an IC50 of 0.801 to 5 µM.
“[2-(4-methoxyphenyl)(4-5,6,7,8-tetrahydroquinolyl)][4-(piperidylmethyl)phenyl]amine [Compound I207]” was tested, and the IC50 was 0.801 to 5 µM.
c1ccc(-c2cc(NCCN3CCCC3)c3ccccc3n2)cc1 [Compound I181, (2-phenyl(4-quinolyl))(2-pyrrolidinylethyl)amine] gave an IC50 of over 5 µM.
Compound CN(C)Cc1cccc(Nc2cc(-c3cc(C(F)(F)F)cc(C(F)(F)F)c3)nc3ccccc23)c1 [Compound I42, {[3-({2-[3,5-bis(trifluoromethyl)phenyl](4-quinolyl)}amino)phenyl]methyl}dimethylamine] has an IC50 of over 5 µM.
With CC(C)NC(=O)c1ccc(-c2cc(NCCCN3CCCCC3)c3ccccc3n2)cc1 [Compound I61, N-(methylethyl)(4-{4-[(3-piperidylpropyl)amino](2-quinolyl)}phenyl)carboxamide] the IC50 was 0.801 to 5 µM.
Compound Cc1nc2ccc(-c3cc(NCCCN4CCCCC4)c4ccccc4n3)cc2s1 [Compound I248] has an IC50 of 0.801 to 5 µM.
In the case of COc1ccc(-c2cc(Nc3ncccn3)c3ccccc3n2)cc1 [Compound G72, [2-(4-methoxyphenyl)(4-quinolyl)]pyrimidin-2-ylamine], the IC50 is reported as 0.801 to 5 µM.
NC(=O)c1ccc(-c2cc(N3CCC(Cc4ccc(N)cc4)CC3)c3ccccc3n2)cc1 [Compound I222, 4-(4-{4-[(4-aminophenyl)methyl]piperidyl}-2-quinolyl)benzamide] was tested, and the IC50 was over 5 µM.
Compound COc1ccc(-c2cc(NCc3ccc(CN4CCOCC4)cc3)c3ccccc3n2)cc1 [Compound I211, [2-(4-methoxyphenyl)(4-quinolyl)]{[4-(morpholin-4-ylmethyl)phenyl]methyl}amine] has an IC50 of 0.801 to 5 µM.
